Legend:
E.coli (ATCC #8739) = test: Preservative efficacy test (challenge test) in an anionic emulsion of pH 5.8; assay type: cell-based; conditions: for LR (log reduction), day 2 / LR (log reduction), day 7 / LR (log reduction), day 14 / LR (log reduction), day 21 / LR (log reduction), day 28: log 10 reduction vs initial inoculum; for surviving microorganisms (total aerobic plate count), day 2: day 2 after inoculation; for surviving microorganisms (total aerobic plate count), day 2 / surviving microorganisms (total aerobic plate count), day 7 / surviving microorganisms (total aerobic plate count), day 14 / surviving microorganisms (total aerobic plate count), day 21 / surviving microorganisms (total aerobic plate count), day 28: storage 22.5±2.5° C., TNTC = too numerous to count; for surviving microorganisms (total aerobic plate count), day 7: day 7 after inoculation; for surviving microorganisms (total aerobic plate count), day 14: day 14 after inoculation; for surviving microorganisms (total aerobic plate count), day 21: day 21 after inoculation; for surviving microorganisms (total aerobic plate count), day 28: day 28 after inoculation
Description: This test is a reference method that is used to evaluate the preservative efficacy of a test formulation (in the present case an anionic emulsion of pH 5.8 comprising various fatty esters and fatty alcohols as oil bodies and glyceryl stearate citrate as the emulsifier. The formula was inoculated with known populations of microorganisms (0.2 ml of calibrated inoculums into 20 g of the test formulation) and the number of surviving microorganisms was calculated at defined intervals during a 28-day period. The inoculated test products were stored at 22.5±2.5° C. for the 28-day duration. The surviving microorganisms were enumerated via the total aerobic plate count method. For each time point, the log 10 reductions were calculated and were compared to the passing criteria.

[1] = constituents of Tagetes mendocina; cited from earlier work
mold = conditions: moist alfalfa hay; cited from earlier work
[2] = administered intraperitoneally; cited from earlier work

CC(C)=CCC[C@](C)(O)[C@@H]1CC=C(C)CC1 [0.6% D100, Bisabolol]
LR (log reduction), day 2 (E.coli (ATCC #8739)): LR 0 | surviving microorganisms (total aerobic plate count), day 2 (E.coli (ATCC #8739)): TNTC | LR (log reduction), day 7 (E.coli (ATCC #8739)): LR 0 | surviving microorganisms (total aerobic plate count), day 7 (E.coli (ATCC #8739)): TNTC | LR (log reduction), day 14 (E.coli (ATCC #8739)): LR 0 | surviving microorganisms (total aerobic plate count), day 14 (E.coli (ATCC #8739)): TNTC | LR (log reduction), day 21 (E.coli (ATCC #8739)): LR 0 | surviving microorganisms (total aerobic plate count), day 21 (E.coli (ATCC #8739)): TNTC | LR (log reduction), day 28 (E.coli (ATCC #8739)): LR 0 | surviving microorganisms (total aerobic plate count), day 28 (E.coli (ATCC #8739)): TNTC

CC(=O)c1ccc(O)cc1 [0.25% SymSave H, 4-hydroxyacetophenone]
antioxidant activity [1]: one of the active constituents | LR (log reduction), day 2 (E.coli (ATCC #8739)): LR 0 | surviving microorganisms (total aerobic plate count), day 2 (E.coli (ATCC #8739)): TNTC | LR (log reduction), day 7 (E.coli (ATCC #8739)): LR 0 | surviving microorganisms (total aerobic plate count), day 7 (E.coli (ATCC #8739)): TNTC | LR (log reduction), day 14 (E.coli (ATCC #8739)): LR 0 | LR (log reduction), day 14 (E.coli (ATCC #8739); listed as 0.35% SymSave H): LR 2.49 | surviving microorganisms (total aerobic plate count), day 14 (E.coli (ATCC #8739)): TNTC | LR (log reduction), day 21 (E.coli (ATCC #8739)): LR 3.94 | LR (log reduction), day 21 (E.coli (ATCC #8739); listed as 0.35% SymSave H): LR 6 | surviving microorganisms (total aerobic plate count), day 21 (E.coli (ATCC #8739)): 6.4 × 10^2 | surviving microorganisms (total aerobic plate count), day 21 (E.coli (ATCC #8739); listed as 0.35% SymSave H): <10 | LR (log reduction), day 28 (E.coli (ATCC #8739)): LR 5.35 | LR (log reduction), day 28 (E.coli (ATCC #8739); listed as 0.35% SymSave H): LR 6 | surviving microorganisms (total aerobic plate count), day 28 (E.coli (ATCC #8739)): 2.5 × 10^1 | surviving microorganisms (total aerobic plate count), day 28 (E.coli (ATCC #8739); listed as 0.35% SymSave H): <10 | prevention of mold growth (mold): not prevent mold growth | reduction of subcutaneous inflammation [2]: reducing subcuteaneous inflammation

From patent publication US11938208B2, “Antimicrobial mixture” (SYMRISE AG, priority 2019, dated 2024)
